Test results published in the supplement of paper PMC10307832.

The cell lines below were run with CC1CC(=O)N(C2=CN=C(N=C2N1C3CCCC3)NC4=C(C=C(C=C4)C(=O)NC5CCN(CC5)C)OC)C [NPK76-II-72-1] (assay: relative viability (nuclei count vs DMSO), 5 days (fraction); higher = more cells survive). Settings: 0.01 µM.
Procedure, shortened: (§1)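 Five library-drug doses, separated by factors of √10, were pinned into 1536-well plates holding lung cancer cell lines after an overnight stay at 37 °C. Cells were fixed, permeabilised and Hoechst-stained in one step after 5 days without medium change, then imaged at 4×. Viability compares treated-well with vehicle-well nuclei, counted in MetaXpress, as a median across plates. Passing plates had control CV below 25% and at least one doubling.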

Cell Line	relative viability
NCI-H1666	0.957
NCI-H596	0.99
LK-2	0.961
NCI-H2087	0.98
SK-MES-1	0.986
H3255	0.918
COR-L23	0.977
COR-L 105	0.976
IA-LM	0.871
LOU-NH91	0.952
NCI-H2170	0.939
NCI-H2405	0.986
HOP-62	0.935
HCC-44	1
A549	0.937
LU99A	0.882
BEN	0.941
HARA	0.922
HCC-78	0.881
NCI-H322M	0.908
LCLC-97TM1	1.07
NCI-H2009	0.98
A-427	0.943
NCI-H661	0.966
NCI-H1734	0.926
NCI-H460	0.98
NCI-H2347	0.924
SK-LU-1	0.987
NCI-H1395	0.893

Same assay, conditions: 0.03162 µM

Cell Line	relative viability
NCI-H2085	1.02
Calu-6	1.05
HCC-366	0.999
NCI-H1666	0.992
NCI-H596	0.97
LK-2	0.912
NCI-H2087	1.03
SK-MES-1	1.03
H3255	0.938
COR-L23	1.06
COR-L 105	0.932
IA-LM	0.836
LOU-NH91	0.991
NCI-H2170	0.977
NCI-H2405	0.991
HOP-62	1.02

Cell Line	relative viability
HCC-44	1.04
A549	1.05
LU99A	0.946
BEN	0.928
HARA	0.987
HCC-78	0.903
NCI-H322M	0.997
LCLC-97TM1	1.03
NCI-H2009	1.05
A-427	1.07
NCI-H661	1.01
NCI-H1734	1.03
NCI-H460	1.04
NCI-H2347	1.05
SK-LU-1	1.02
NCI-H1395	0.906

Same assay, conditions: 0.1 µM

Cell Line	relative viability
NCI-H2085	0.961
Calu-6	1.03
HCC-366	1
NCI-H1666	0.959
NCI-H596	1.02
LK-2	0.962
NCI-H2087	0.868
SK-MES-1	0.989
H3255	0.995
COR-L23	0.998
COR-L 105	0.977
IA-LM	0.919
LOU-NH91	0.876
NCI-H2170	0.928
NCI-H2405	1.03
HOP-62	0.937

Cell Line	relative viability
HCC-44	0.96
A549	1.01
LU99A	0.945
BEN	0.903
HARA	0.845
HCC-78	0.931
NCI-H322M	1.01
LCLC-97TM1	0.959
NCI-H2009	1
A-427	0.984
NCI-H661	0.97
NCI-H1734	1
NCI-H460	1.02
NCI-H2347	0.948
SK-LU-1	1.02
NCI-H1395	0.953

Same assay, conditions: 0.3162 µM

Cell Line	relative viability
NCI-H2085	0.952
Calu-6	0.954
HCC-366	1.09
NCI-H1666	0.845
NCI-H596	1.02
LK-2	0.832
NCI-H2087	0.889
SK-MES-1	1.01
H3255	0.72
COR-L23	1.01
COR-L 105	0.878
IA-LM	0.842
LOU-NH91	0.793
NCI-H2170	0.71
NCI-H2405	1.01
HOP-62	0.875

Cell Line	relative viability
HCC-44	0.969
A549	1
LU99A	0.875
BEN	0.904
HARA	0.924
HCC-78	0.976
NCI-H322M	0.999
LCLC-97TM1	0.752
NCI-H2009	0.933
A-427	0.929
NCI-H661	0.794
NCI-H1734	0.967
NCI-H460	0.983
NCI-H2347	0.982
SK-LU-1	0.947
NCI-H1395	0.955

Same assay, conditions: 1 µM

Cell Line	relative viability
NCI-H2085	1
Calu-6	0.996
HCC-366	0.97
NCI-H1666	1.11
NCI-H596	1.01
LK-2	1.01
NCI-H2087	1.05
SK-MES-1	1.09
H3255	1.1
COR-L23	1.01
COR-L 105	0.965
IA-LM	1.14
LOU-NH91	1.09
NCI-H2170	1.11
NCI-H2405	1.05
HOP-62	1.05

Cell Line	relative viability
HCC-44	1.07
A549	1.03
LU99A	1.02
BEN	0.996
HARA	1.05
HCC-78	1
NCI-H322M	1.01
LCLC-97TM1	1.13
NCI-H2009	1.1
A-427	0.977
NCI-H661	1.01
NCI-H1734	1.1
NCI-H460	0.992
NCI-H2347	1.05
SK-LU-1	1.01
NCI-H1395	0.993

Each cell line was assayed with CC[C@@H]1C(=O)N(C)c2cnc(Nc3ccc(C(=O)NC4CCN(C)CC4)cc3OC)nc2N1C1CCCC1 [BI-2536] in the same assay as above. Settings: 0.01 µM.
Procedure, shortened: as §1

Cell Line	relative viability
NCI-H2085	1.01
